Laboratory results as given in patent US11472826B2, “Acyclic antivirals” (priority 2016, dated 2022).

Columns and labels:
[1] = test system: VSV-G pseudotyped HIV NL4-3; test: microbe, parasite or virus in culture; format: cell-based; settings: Human immunodeficiency virus 1, NL43, 72 h
HBV = test: microbe, parasite or virus in culture; format: cell-based; settings: Hepatitis B virus; HepG2.117 cells, 72 hours, HBV viral copy numbers in supernatant; read-out: EC50
[2] = target: Recombinant full length HIV-1 Reverse Transcriptase (HIVrt) (Human immunodeficiency virus type 1 group M subtype B (isolate HXB2) (HIV-1), UniProt P04585); test: Inhibition of HIV reverse transcriptase (HIVrt RNA-dependent DNA polymerization assay); format: biochemical; settings: 1 nM HIVrt, c5′UTR RNA template, 30° C., 40 min; phosphono diphosphates tested
Protocol: Recombinant full length HIV-1 Reverse Transcriptase (HIVrt) was purchased from Abcam, catalog #ab63979. The last 385 nucleotide region of the HCV anti-genome complementary to the 5′ untranslated region (c5′UTR) was synthesized using T7 RNA polymerase Megascript kit from Ambion (Cat #AM1333). A DNA oligo served as an internal initiation primer and was purchased from IDT. Unless otherwise specified, reaction samples consisted of 20 nM c5′UTR RNA, 100 nM DNA primer, and 1 nM HIVrt, mixed together in a buffer containing 50 mM Tris pH 7.5, 100 mM KCl, 4 mM dithiothreitol (DTT), and 12.5 mM MgCl2. Reactions were initiated at 30° C. by adding 0.1 μM adenosine triphosphate (dATP), 0.1 μM cytosine triphosphate (dCTP), 1 μM guanosine triphosphate (dGTP), and 0.32 μM ^3H-thymidine triphosphate (^3H-TTP), in a final volume of 50 μL. After 40-mins incubation, the reaction was terminated by adding 60 μl of chilled 20% (w/v) trichloroacetic acid with 500 μM ATP to precipitate nucleic acids. After incubation at 4° C. for 1 h, the sample underwent filtration on a multiscreen BV 1.2-μm 96-well plate (Millipore). 40 μL Microscint-20 (Perkin Elmer) was added to the well and the counts in the sample were determined by a Trilux Microbeta microplate scintillation reader (Wallac).
All data were analyzed with GraphPad Prism. The compound concentration at which the enzyme-catalyzed rate was reduced by 50% (IC50) was calculated by fitting the data to the equation Y=% Min+(% Max−% Min)/(1+X/IC50), where Y corresponds to the percent relative enzyme activity, % Min is the residual relative activity at saturating compound concentration, % Max is the relative maximum enzyme activity, and X corresponds to the compound concentration. The Ki was calculated using the Cheng-Prusoff equation assuming competitive inhibition relative to natural dNTP incorporation: Ki=IC50/(1+[dNTP]/Km), where [dNTP] is the concentration of natural dNTP and Km is the apparent Km for dNTP. The standard HIVrt RNA-dependent DNA polymerization (RdDp) assay was used to determine the IC50 values.

Row | Structure (SMILES) | EC50 [1] | EC50 (HBV) | IC50 [2]
1 | Nc1ncnn2c(CCOCP(=O)(O)O)ccc12 [Compound 3, ((2-(4-aminopyrrolo[2,1-f][1,2,4]triazin-7-yl)ethoxy)methyl)phosphonic Acid] | > 100 µM |  | 
2 | CC(Cc1ccc2c(N)nc(N)nn12)OCP(=O)(O)O (stereo not shown) [Compound 9, (((1-(2,4-diaminopyrrolo[2,1-f][1,2,4]triazin-7-yl)propan-2-yl)oxy)methyl) phosphonic Acid] | < 20 µM | 1 to 10 µM | 
3 | C[C@H](Cc1ccc2c(N)ncnn12)OCP(=O)(O)O [Compound 2, (R)-(((1-(4-aminopyrrolo[2,1-f][1,2,4]triazin-7-yl)propan-2-yl)oxy)methyl)phosphonic Acid] | 20 to 100 µM | 10 to 100 µM | 
4 | C[C@H](Cc1ccc2c(N)ncnn12)OCP(=O)(O)OP(=O)(O)OP(=O)(O)O [Compound 21] |  |  | < 50 nM
5 | C[C@H](Cc1nnc2c(N)ncnn12)OCP(=O)(O)OP(=O)(O)OP(=O)(O)O [Compound 22] |  |  | ≥ 250 nM
6 | C[C@H](Cc1cnc2c(N)ncnn12)OCP(=O)(O)O [Compound 5, (R)-(((1-(4-aminoimidazo[2,1-f][1,2,4]triazin-7-yl)propan-2-yl)oxy)methyl)phosphonic Acid] | < 20 µM |  | 
7 | Nc1ncnc2c(CC(CF)OCP(=O)(O)O)cnn12 (stereo not shown) [Compound 10, (1-(4-aminopyrazolo[1,5-a][1,3,5]triazin-8-yl)-3-fluoropropan-2-yloxy)methylphosphonic Acid] | < 20 µM | 1 to 10 µM | 
8 | C[C@H](Cc1cnc2c(N)ncnn12)OCP(=O)(O)OP(=O)(O)OP(=O)(O)O [Compound 23] |  |  | < 50 nM
9 | C[C@@H](Cc1cnn2c(N)ncnc12)OCP(=O)(O)O [Compound 30] | < 20 µM |  | 
10 | Nc1ncnc2c(C[C@H](CF)OCP(=O)(O)OP(=O)(O)OP(=O)(O)O)cnn12 [Compound 59] |  |  | < 50 nM
11 | CC(C)OC(=O)OCOP(=O)(CO[C@@H](C)Cc1cnn2c(N)ncnc12)OCOC(=O)OC(C)C [Compound 14] | < 20 µM | < 1 µM | 
12 | CC(Cc1cnn2c(N)ncnc12)OCP(=O)(O)O (stereo not shown) [Compound 7, (1-(4-aminopyrazolo[1,5-a][1,3,5]triazin-8-yl)propan-2-yloxy)methylphosphonic Acid] | < 20 µM |  | 
13 | C[C@H](Cc1nnc2c(N)ncnn12)OCP(=O)(O)O [Compound 4, (R)-(((1-(8-amino-[1,2,4]triazolo[3,4-f][1,2,4]triazin-3-yl)propan-2-yl)oxy)methyl)phosphonic Acid] | > 100 µM |  | 
14 | Nc1ncnn2c(C[C@@H](CF)OCP(=O)(O)OP(=O)(O)OP(=O)(O)O)cnc12 [Compound 80] |  |  | 50 to 250 nM
15 | C[C@H](Cc1ncc2c(N)ncnn12)OCP(=O)(O)OP(=O)(O)OP(=O)(O)O [Compound 24] |  |  | ≥ 250 nM
16 | CC(C)OC(=O)OCOP(=O)(CO[C@H](C)Cc1ccc2c(N)ncnn12)OCOC(=O)OC(C)C [Compound 11] | < 20 µM | < 1 µM | 
17 | CC(Cc1ccc2c(=O)[nH]cnn12)OCP(=O)(O)OP(=O)(O)OP(=O)(O)O (stereo not shown) [Compound 55] |  |  | ≥ 250 nM
18 | Nc1ncnn2c(COCCP(=O)(O)OP(=O)(O)OP(=O)(O)O)ccc12 [Compound 19] |  |  | ≥ 250 nM
19 | CC(C)OC(=O)OCOP(=O)(CO[C@H](C)Cc1cnc2c(N)ncnn12)OCOC(=O)OC(C)C [Compound 12] | < 20 µM | < 1 µM | 

Row | Structure (SMILES) | EC50 [1] | EC50 (HBV) | IC50 [2]
20 | C[C@H](Cc1ncc2c(N)ncnn12)OCP(=O)(O)O [Compound 6, (R)-(((1-(4-aminoimidazo[5,1-f][1,2,4]triazin-7-yl)propan-2-yl)oxy)methyl)phosphonic Acid] | > 100 µM |  | 
21 | C[C@H](Cc1cnn2c(N)ncnc12)OCP(=O)(O)O [Compound 29] | 20 to 100 µM |  | 
22 | CC(Cc1cnc2c(=O)[nH]c(N)nn12)OCP(=O)(O)OP(=O)(O)OP(=O)(O)O (stereo not shown) [Compound 57] |  |  | 50 to 250 nM
23 | C[C@@H](Cc1cnn2c(N)ncnc12)OCP(=O)(O)OP(=O)(O)OP(=O)(O)O [Compound 26] |  |  | < 50 nM
24 | C[C@H](Cc1cnn2c(N)ncnc12)OCP(=O)(O)OP(=O)(O)OP(=O)(O)O [Compound 25] |  |  | 50 to 250 nM
25 | Nc1ncnn2c(COCCP(=O)(O)O)ccc12 [Compound 1, (2-((4-aminopyrrolo[2,1-f][1,2,4]triazin-7-yl)methoxy)ethyl)phosphonic Acid] | > 100 µM | < 1 µM | 
26 | CC(Cc1ccc2c(=O)[nH]c(N)nn12)OCP(=O)(O)OP(=O)(O)OP(=O)(O)O (stereo not shown) [Compound 56] |  |  | < 50 nM
27 | CC(Cc1ccc2c(N)nc(F)nn12)OCP(=O)(O)OP(=O)(O)OP(=O)(O)O (stereo not shown) [Compound 27] |  |  | < 50 nM
28 | Nc1ncnc2c(CC3(OCP(=O)(O)OP(=O)(O)OP(=O)(O)O)CC3)cnn12 [Compound 60] |  |  | 50 to 250 nM
29 | Nc1ncnn2c(C[C@H](CF)OCP(=O)(O)OP(=O)(O)OP(=O)(O)O)cnc12 [Compound 82] |  |  | 50 to 250 nM
30 | CC(Cc1ccc2c(N)nc(F)nn12)OCP(=O)(O)O (stereo not shown) [Compound 8, (((1-(4-amino-2-fluoropyrrolo[2,1-f][1,2,4]triazin-7-yl)propan-2-yl)oxy)methyl)phosphonic Acid] | 20 to 100 µM | 10 to 100 µM | 
31 | CC(Cc1ccc2c(N)nc(N)nn12)OCP(=O)(O)OP(=O)(O)OP(=O)(O)O (stereo not shown) [Compound 28] |  |  | ≥ 250 nM
32 | Nc1ncnc2c(C[C@@H](CF)OCP(=O)(O)OP(=O)(O)OP(=O)(O)O)cnn12 [Compound 58] |  |  | < 50 nM
33 | Nc1ncnn2c(CCOCP(=O)(O)OP(=O)(O)OP(=O)(O)O)ccc12 [Compound 20] |  |  | < 50 nM
34 | CC(C)OC(=O)OCOP(=O)(CO[C@H](C)Cc1cnn2c(N)ncnc12)OCOC(=O)OC(C)C [Compound 13] | < 20 µM | > 100 µM | 
35 | Nc1ncnc2c(C[C@@H](OCP(=O)(O)OP(=O)(O)OP(=O)(O)O)C(F)F)cnn12 [Compound 81] |  |  | 50 to 250 nM
36 | CC(C)(Cc1cnn2c(=O)[nH]c(N)nc12)OCP(=O)(O)OP(=O)(O)OP(=O)(O)O [Compound 83] |  |  | ≥ 250 nM
37 | Nc1ncnc2c(C[C@H](OCP(=O)(O)OP(=O)(O)OP(=O)(O)O)C(F)F)cnn12 [Compound 79] |  |  | ≥ 250 nM
